Assays:
Settings in all cases: Compound concentration 10.0 uM, Protein concentration 2.0 uM
[1] = biological target: Bromodomain-containing protein 2 (Homo sapiens) (UniProt P25440)
[2] = biological target: Histone acetyltransferase KAT2B (Homo sapiens) (UniProt Q92831)
[3] = biological target: Nuclear body protein SP140-like protein (Homo sapiens) (UniProt Q9H930)
[4] = biological target: Bromodomain-containing protein 2 (Homo sapiens) (UniProt P25440); remark: listed apart in the source

Chain of Bromodomain-containing protein 2 (Homo sapiens) (P25440 whole entry, looked up): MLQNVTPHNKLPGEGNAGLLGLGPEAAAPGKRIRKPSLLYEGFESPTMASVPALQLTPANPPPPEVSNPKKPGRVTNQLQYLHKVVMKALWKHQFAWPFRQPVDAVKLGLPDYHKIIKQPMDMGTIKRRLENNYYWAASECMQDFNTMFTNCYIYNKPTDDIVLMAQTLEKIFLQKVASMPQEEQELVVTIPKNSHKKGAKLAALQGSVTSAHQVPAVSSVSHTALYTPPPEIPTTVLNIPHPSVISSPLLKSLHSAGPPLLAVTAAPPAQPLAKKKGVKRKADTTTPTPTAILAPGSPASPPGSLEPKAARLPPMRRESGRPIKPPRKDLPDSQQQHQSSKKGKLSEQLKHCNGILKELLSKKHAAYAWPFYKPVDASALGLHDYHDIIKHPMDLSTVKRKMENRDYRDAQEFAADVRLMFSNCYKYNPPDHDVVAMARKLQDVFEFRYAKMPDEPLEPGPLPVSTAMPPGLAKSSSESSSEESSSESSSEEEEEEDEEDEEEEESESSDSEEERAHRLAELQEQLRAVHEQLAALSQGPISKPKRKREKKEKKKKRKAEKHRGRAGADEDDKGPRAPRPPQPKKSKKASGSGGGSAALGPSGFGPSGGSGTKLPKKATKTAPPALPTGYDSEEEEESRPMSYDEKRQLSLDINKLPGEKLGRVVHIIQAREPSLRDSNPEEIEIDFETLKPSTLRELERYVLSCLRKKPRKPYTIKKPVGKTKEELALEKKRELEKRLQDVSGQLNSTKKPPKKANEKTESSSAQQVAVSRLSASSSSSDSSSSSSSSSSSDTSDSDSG
Chain of Nuclear body protein SP140-like protein (Homo sapiens) (Q9H930 whole entry): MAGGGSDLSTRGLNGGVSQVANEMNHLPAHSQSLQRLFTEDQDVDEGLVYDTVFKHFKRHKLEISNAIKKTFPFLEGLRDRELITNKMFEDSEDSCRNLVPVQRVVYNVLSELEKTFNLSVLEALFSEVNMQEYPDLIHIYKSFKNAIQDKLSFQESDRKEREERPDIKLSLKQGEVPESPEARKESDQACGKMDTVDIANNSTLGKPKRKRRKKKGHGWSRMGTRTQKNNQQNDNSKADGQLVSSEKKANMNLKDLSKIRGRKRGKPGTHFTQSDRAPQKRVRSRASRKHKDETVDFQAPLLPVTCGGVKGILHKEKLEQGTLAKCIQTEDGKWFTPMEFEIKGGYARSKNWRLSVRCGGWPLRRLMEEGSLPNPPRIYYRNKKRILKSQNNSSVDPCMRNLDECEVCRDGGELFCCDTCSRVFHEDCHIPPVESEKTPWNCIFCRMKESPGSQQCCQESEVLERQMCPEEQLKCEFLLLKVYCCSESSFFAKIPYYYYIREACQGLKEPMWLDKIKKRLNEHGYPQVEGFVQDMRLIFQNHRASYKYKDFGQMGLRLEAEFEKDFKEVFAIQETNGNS
Chain of Histone acetyltransferase KAT2B (Homo sapiens) (Q92831 whole entry, looked up): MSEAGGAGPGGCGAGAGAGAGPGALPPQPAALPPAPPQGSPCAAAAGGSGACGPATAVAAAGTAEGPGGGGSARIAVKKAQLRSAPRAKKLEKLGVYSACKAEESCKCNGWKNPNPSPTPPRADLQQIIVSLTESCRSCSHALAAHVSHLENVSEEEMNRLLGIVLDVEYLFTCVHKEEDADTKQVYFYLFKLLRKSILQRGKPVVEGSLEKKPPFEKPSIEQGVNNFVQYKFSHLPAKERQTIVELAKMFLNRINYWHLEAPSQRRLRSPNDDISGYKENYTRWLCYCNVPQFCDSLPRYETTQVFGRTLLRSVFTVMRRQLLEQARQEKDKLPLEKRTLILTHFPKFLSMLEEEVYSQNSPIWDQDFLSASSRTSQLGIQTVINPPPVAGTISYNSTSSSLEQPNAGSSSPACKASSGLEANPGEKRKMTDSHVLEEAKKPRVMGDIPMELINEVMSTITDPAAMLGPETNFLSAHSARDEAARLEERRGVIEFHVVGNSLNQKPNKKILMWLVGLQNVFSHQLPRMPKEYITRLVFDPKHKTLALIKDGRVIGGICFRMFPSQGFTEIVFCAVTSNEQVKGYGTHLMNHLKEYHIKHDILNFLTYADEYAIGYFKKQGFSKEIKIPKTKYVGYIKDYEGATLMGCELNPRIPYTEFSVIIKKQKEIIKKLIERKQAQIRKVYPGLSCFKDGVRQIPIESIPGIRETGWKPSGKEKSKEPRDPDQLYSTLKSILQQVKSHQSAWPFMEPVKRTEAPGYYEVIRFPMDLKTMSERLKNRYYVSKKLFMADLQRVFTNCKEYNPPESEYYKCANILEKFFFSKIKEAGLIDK

Which results are given for `Cc1sc2c(c1C)C(c1ccc(Cl)cc1)=N[C@@H](CC(=O)OC(C)(C)C)c1nnc(C)n1-2`?
ΔTm [1]: 8.16 °C; ΔTm [2]: 0.7 °C; ΔTm [3]: -0.07 °C; ΔTm [4]: 5.58 °C
